Experimental data taken from US10683288B2, “Epothilone B and dictyostatin analogs, their preparation and use” (The Trustees of Columbia University in the City of New York, priority 2015, dated 2020).
Like-named read-outs stand apart in the source and are kept apart here.

Tests used:
DLD1 (colon) = assay: cell growth inhibition, dictyostatin analogs, DLD1; format: cell-based; details: for GI50: Homo sapiens
Procedure: (§1) The C(6)- and C(12)-(4-azidobutyl) analogs 1 and 2 as well as triazole 26 and amide 27 were assayed for cell growth inhibition against four cell lines (PC3 (prostate), 1A9 (ovarian), A549 (lung), and DLD1 (colon)) alongside reference samples of synthetic dictyostatin and paclitaxel (Table 1a).

1A9 (ovarian) = assay: cell growth inhibition, dictyostatin analogs, 1A9; format: cell-based; details: for GI50: read-out: GI50 1A9
Procedure: as §1

A549 (lung) = assay: cell growth inhibition, dictyostatin analogs, A549; format: cell-based; details: for GI50: Homo sapiens
Procedure: as §1

[1] = system: PC3 (prostate), 1A9 (ovarian), A549 (lung), and DLD1 (colon) cell lines; assay: cell growth inhibition, dictyostatin analogs, summary over four cell lines; format: cell-based
Procedure: as §1

PC3 (prostate) [2] = assay: cell growth inhibition, dictyostatin analogs, PC3; format: cell-based; details: for GI50: read-out: GI50 PC3
Procedure: as §1

MCF7 (breast) = assay: cell growth inhibition, Epo B analogs, MCF7; format: cell-based
Procedure: (§2) Compounds 19, 20 and 21 were assayed for cell growth inhibition against four cell lines (PC3 (prostate), MCF7 breast), H522 (lung), and OVCAR8 (ovarian)) alongside reference samples of Epo A, ixabepilone and taxol (Table 1).

H522 (lung) = assay: cell growth inhibition, Epo B analogs, H522; format: cell-based
Procedure: as §2

PC3 (prostate) [3] = assay: cell growth inhibition, Epo B analogs, PC3; format: cell-based; details: read-out: IC50 PC3 (Prostate)
Procedure: as §2

OVCAR8 (ovarian) = assay: cell growth inhibition, Epo B analogs, OVCAR8; format: cell-based
Procedure: as §2

[4] = literature; cited from earlier work
[5] = Homo sapiens, MCF7, read-out: IC50 MCF7 (Breast)
[6] = Homo sapiens, NCI-H522, read-out: IC50 H522 (Lung)
[7] = Homo sapiens, OVCAR-8, read-out: IC50 OVCAR8 (Ovarian)
[8] = Homo sapiens, MCF7 (Breast) cell line, read-out: IC50 MCF7 (Breast)
[9] = Homo sapiens, NCI-H522, H522 (Lung) cell line, read-out: IC50 H522 (Lung)
[10] = Homo sapiens, OVCAR-8, OVCAR8 (Ovarian) cell line, read-out: IC50 OVCAR8 (Ovarian)

Compound: C=C/C=C\[C@H](C)[C@@H]1OC(=O)/C=C\C=C\[C@@H](CCCCN=[N+]=[N-])[C@@H](O)C[C@H](O)/C=C\[C@H](C)[C@H](O)[C@@H](C)C[C@@H](C)CC[C@@H](O)[C@@H]1C [C(6) analog 1]
- GI50 (DLD1 (colon); DLD-1, read-out: GI50 DLD1): 1.1 nM
- GI50 (1A9 (ovarian)): 2.2 nM
- GI50 (A549 (lung); A549, read-out: GI50 A549): 1.1 nM
- GI50 values relative to dictyostatin ([1]; four cell lines): only slightly attenuated relative to dictyostatin
- GI50 (PC3 (prostate) [2]; Prostate cell): 1.9 nM

Compound: C/C(=C\c1csc(C)n1)[C@@H]1C[C@@H]2OC2(C)CCC[C@H](C)[C@H](O)[C@@H](CCCCN=[N+]=[N-])C(=O)C(C)(C)[C@@H](O)CC(=O)O1 (stereo partly drawn) [Compound 19]
- IC50 (MCF7 (breast); [5]): < 0.65 nM
- IC50 (H522 (lung); [6]): 0.4 nM
- IC50 (PC3 (prostate) [3]; Prostate cell): 2.1 nM
- IC50 (OVCAR8 (ovarian); [7]): 1 nM

Compound: CC(=O)NCCCC[C@H]1C(=O)C(C)(C)[C@@H](O)CC(=O)O[C@H](/C(C)=C/c2csc(C)n2)C[C@@H]2OC2(C)CCC[C@H](C)[C@@H]1O (stereo partly drawn) [Compound 21]
- IC50 (MCF7 (breast); [5]): ≤ 0.65 nM
- IC50 (H522 (lung); [6]): 0.6 nM
- IC50 (PC3 (prostate) [3]; Prostate cell): 1 nM
- IC50 (OVCAR8 (ovarian); [7]): 2.2 nM

Compound: C/C(=C\c1csc(C)n1)[C@@H]1C[C@@H]2O[C@@H]2CCC[C@H](C)[C@H](O)[C@@H](C)C(=O)C(C)(C)[C@@H](O)CC(=O)O1 [Epo A, epothilone A]
- IC50 (MCF7 (breast); MCF7 (Breast) cell line, read-out: IC50 MCF7 (Breast)): 7 nM
- IC50 (H522 (lung); H522 (Lung) cell line, read-out: IC50 H522 (Lung)): 5.5 nM
- IC50 (PC3 (prostate) [3]; PC3 (Prostate) cell line): 7 nM
- IC50 (OVCAR8 (ovarian); OVCAR8 (Ovarian) cell line, read-out: IC50 OVCAR8 (Ovarian)): 6 nM

Compound: C/C(=C\c1csc(C)n1)[C@@H]1C[C@@H]2O[C@]2(C)CCC[C@H](C)[C@H](O)[C@@H](C)C(=O)C(C)(C)[C@@H](O)CC(=O)N1 [Ixabepilone]
- IC50 (MCF7 (breast); [8]): 2 nM
- IC50 (H522 (lung); [9]): 2.5 nM
- IC50 (PC3 (prostate) [3]; PC3 (Prostate) cell line): 4 nM
- IC50 (OVCAR8 (ovarian); [10]): 3.3 nM

Compound: CC(=O)O[C@H]1C(=O)[C@@]2(C)[C@H]([C@H](OC(=O)c3ccccc3)[C@]3(O)C[C@H](OC(=O)[C@H](O)[C@@H](NC(=O)c4ccccc4)c4ccccc4)C(C)=C1C3(C)C)[C@]1(OC(C)=O)CO[C@@H]1C[C@@H]2O [Taxol, paclitaxel, reference compound]
- IC50 (MCF7 (breast); [8]): < 0.13 nM
- IC50 (H522 (lung); [9]): 2.6 nM
- GI50 (DLD1 (colon); DLD-1, DLD1 (colon) cell line, read-out: GI50 DLD1): 15 nM
- GI50 (1A9 (ovarian); 1A9 (ovarian) cell line): 0.4 nM
- IC50 (PC3 (prostate) [3]; PC3 (Prostate) cell line): 6 nM
- GI50 (A549 (lung); A549 (lung) cell line, read-out: GI50 A549): 1.2 nM
- GI50 (PC3 (prostate) [2]; PC3 (Prostate) cell line): 1.9 nM
- IC50 (OVCAR8 (ovarian); [10]): 1.9 nM

Compound: C=C/C=C\[C@H](C)[C@@H]1OC(=O)/C=C\C=C\[C@@H](CCCCNC(C)=O)[C@@H](O)C[C@H](O)/C=C\[C@H](C)[C@H](O)[C@@H](C)C[C@@H](C)CC[C@@H](O)[C@@H]1C [amide 27]
- GI50 (DLD1 (colon); DLD-1, read-out: GI50 DLD1): 32 nM
- GI50 (1A9 (ovarian)): 30 nM
- GI50 (A549 (lung); A549, read-out: GI50 A549): 22 nM
- reduction in potency relative to azide 1 ([1]; against all four cell lines): 1-2 orders of magnitude
- GI50 (PC3 (prostate) [2]; Prostate cell): 50 nM

Compound: C=C/C=C\[C@H](C)[C@@H]1OC(=O)/C=C\C=C\[C@@H](C)[C@@H](O)C[C@H](O)/C=C\[C@H](C)[C@H](O)[C@@H](C)C[C@@H](C)CC[C@@H](O)[C@@H]1C [dictyostatin]
- GI50 (DLD1 (colon); DLD-1, read-out: GI50 DLD1): 0.4 nM
- GI50 (1A9 (ovarian)): 0.8 nM
- GI50 (A549 (lung); A549, read-out: GI50 A549): 0.3 nM
- GI50 (PC3 (prostate) [2]; Prostate cell): 1.3 nM

Compound: C=C/C=C\[C@H](C)[C@@H]1OC(=O)/C=C\C=C\[C@@H](CCCCn2nnc3c2CC[C@@H]2[C@@H](CO)[C@@H]2CC3)[C@@H](O)C[C@H](O)/C=C\[C@H](C)[C@H](O)[C@@H](C)C[C@@H](C)CC[C@@H](O)[C@@H]1C [triazole 26]
- activity relative to azide 1 (DLD1 (colon); DLD1 cell line): more substantial (though not catastrophic) reductions in potency
- GI50 (DLD1 (colon); DLD-1, read-out: GI50 DLD1): 13 nM
- activity relative to azide 1 (1A9 (ovarian); 1A9 cell line): only slightly diminished from that of azide 1
- GI50 (1A9 (ovarian)): 8.4 nM
- activity relative to azide 1 (A549 (lung); A549 cell line): more substantial (though not catastrophic) reductions in potency
- GI50 (A549 (lung); A549, read-out: GI50 A549): 25 nM
- activity relative to azide 1 (PC3 (prostate) [2]; PC3 cell line): only slightly diminished from that of azide 1
- GI50 (PC3 (prostate) [2]; Prostate cell): 4.8 nM

Compound: C(6)-epi dictyostatin
- potency relative to the natural product dictyostatin, in words [4]: as potent as the natural product

Compound: C(6)-normethyl dictyostatin
- loss of potency relative to the natural product dictyostatin [4]: ≤ 1 order of magnitude
